Laboratory results from patent US11572369B2, “Bicyclic pyridine compositions and methods of using the same for cancer therapy” (UNIVERSITY OF SOUTH CAROLINA, priority 2019, dated 2023).

Experiments:
Experiment in all cases: KINOMEscan
Assay type in all cases: binding
Conditions in all cases: 2000 nM
PKN1 = target: T1, PKN1 (Homo sapiens, UniProt Q16512)
T1 construct: DNA label (qPCR read-out); purchased KINOMEscan (DiscoveRx) panel

PFTAIRE2 = target: T2, PFTAIRE2 (Homo sapiens, UniProt Q96Q40)
T2 construct: DNA label (for qPCR read-out); purchased DiscoveRx (KINOMEscan scanMAX service)
T2 sequence (Q96Q40 whole entry): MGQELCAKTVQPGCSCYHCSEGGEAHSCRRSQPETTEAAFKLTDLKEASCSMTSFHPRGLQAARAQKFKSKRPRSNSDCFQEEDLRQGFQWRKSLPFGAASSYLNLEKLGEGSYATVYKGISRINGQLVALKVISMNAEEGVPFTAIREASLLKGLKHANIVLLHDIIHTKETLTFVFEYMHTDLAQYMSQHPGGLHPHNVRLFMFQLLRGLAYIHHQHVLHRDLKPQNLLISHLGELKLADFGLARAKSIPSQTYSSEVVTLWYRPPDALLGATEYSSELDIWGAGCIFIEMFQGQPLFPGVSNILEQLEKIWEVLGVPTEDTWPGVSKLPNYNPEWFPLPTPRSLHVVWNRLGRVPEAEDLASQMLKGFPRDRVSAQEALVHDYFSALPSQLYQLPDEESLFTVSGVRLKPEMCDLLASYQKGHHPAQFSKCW

ROCK2 = target: T3, ROCK2 (Homo sapiens, UniProt O75116)
T3 construct: DNA label (qPCR read-out); purchased DiscoveRx (KINOMEscan ScanMAX panel)

ERK4 = target: T4, ERK4 (Homo sapiens, UniProt P31152)
T4 construct: DNA label (qPCR read-out); purchased DiscoveRx (KINOMEscan ScanMAX panel)

PIP5K2B = target: T5, PIP5K2B (Homo sapiens, UniProt P78356)
T5 construct: DNA label (qPCR read-out); purchased KINOMEscan (DiscoveRx) panel

p38-gamma = target: T6, p38-gamma (Homo sapiens, UniProt P53778)
T6 construct: purchased DiscoverX (KINOMEscan service)

SGK = target: T7, SGK (Homo sapiens, UniProt O00141)
T7 construct: purchased DiscoveRx (KINOMEscan scanMAX panel)
T7 sequence (O00141 whole entry): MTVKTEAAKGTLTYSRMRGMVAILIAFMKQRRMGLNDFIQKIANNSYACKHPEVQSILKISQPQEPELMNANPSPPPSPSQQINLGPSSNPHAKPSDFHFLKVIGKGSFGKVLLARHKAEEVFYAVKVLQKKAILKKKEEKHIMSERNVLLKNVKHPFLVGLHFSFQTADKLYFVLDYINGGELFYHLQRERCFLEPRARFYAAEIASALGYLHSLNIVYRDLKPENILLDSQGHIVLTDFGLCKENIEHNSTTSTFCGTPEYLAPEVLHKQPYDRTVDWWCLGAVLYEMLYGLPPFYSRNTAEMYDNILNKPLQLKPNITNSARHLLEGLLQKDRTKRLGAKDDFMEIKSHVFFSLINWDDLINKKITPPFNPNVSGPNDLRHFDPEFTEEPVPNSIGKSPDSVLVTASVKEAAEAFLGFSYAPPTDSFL

ASK1 = target: T8, ASK1 (Homo sapiens, UniProt Q99683)
T8 construct: DNA label (qPCR read-out); purchased KINOMEscan scanMAX panel (DiscoveRx)

MAP4K4 = MAP4K4 (Homo sapiens, UniProt O95819)
KIT(V559D, V654A) = target: T9, KIT(V559D, V654A) (Homo sapiens, UniProt P10721, V559D/V654A)
T9 construct: purchased KINOMEscan (DiscoveRx) panel service

NEK10 = target: T10, NEK10 (Homo sapiens, UniProt Q6ZWH5)
T10 construct: DNA label (qPCR read-out); purchased KINOMEscan (ScanMAX panel service)

AKT3 = target: T11, AKT3 (Homo sapiens, UniProt Q9Y243)
T11 construct: purchased DiscoveRx (KINOMEscan scanMAX panel, service)
T11 sequence (Q9Y243 whole entry): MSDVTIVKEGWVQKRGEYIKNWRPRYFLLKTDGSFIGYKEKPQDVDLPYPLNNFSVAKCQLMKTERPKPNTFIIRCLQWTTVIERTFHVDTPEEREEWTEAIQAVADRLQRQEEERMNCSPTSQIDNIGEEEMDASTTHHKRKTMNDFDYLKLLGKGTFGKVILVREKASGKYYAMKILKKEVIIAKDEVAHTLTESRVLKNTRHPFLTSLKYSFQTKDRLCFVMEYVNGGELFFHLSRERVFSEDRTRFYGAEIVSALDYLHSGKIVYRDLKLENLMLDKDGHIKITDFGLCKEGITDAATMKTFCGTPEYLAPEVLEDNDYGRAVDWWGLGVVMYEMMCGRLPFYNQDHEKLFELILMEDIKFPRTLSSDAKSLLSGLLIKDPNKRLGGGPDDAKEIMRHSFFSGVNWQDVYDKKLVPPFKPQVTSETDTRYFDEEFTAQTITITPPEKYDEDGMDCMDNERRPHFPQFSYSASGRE

CSNK1D = target: T12, CSNK1D (Homo sapiens, UniProt P48730)
T12 construct: DNA label (qPCR read-out); purchased DiscoverX (assay service)

BIKE = target: T13, BIKE (Homo sapiens, UniProt Q9NSY1)
T13 construct: DNA label (qPCR read-out); purchased KINOMEscan scanMAX panel (DiscoveRx)
T13 sequence (Q9NSY1 whole entry): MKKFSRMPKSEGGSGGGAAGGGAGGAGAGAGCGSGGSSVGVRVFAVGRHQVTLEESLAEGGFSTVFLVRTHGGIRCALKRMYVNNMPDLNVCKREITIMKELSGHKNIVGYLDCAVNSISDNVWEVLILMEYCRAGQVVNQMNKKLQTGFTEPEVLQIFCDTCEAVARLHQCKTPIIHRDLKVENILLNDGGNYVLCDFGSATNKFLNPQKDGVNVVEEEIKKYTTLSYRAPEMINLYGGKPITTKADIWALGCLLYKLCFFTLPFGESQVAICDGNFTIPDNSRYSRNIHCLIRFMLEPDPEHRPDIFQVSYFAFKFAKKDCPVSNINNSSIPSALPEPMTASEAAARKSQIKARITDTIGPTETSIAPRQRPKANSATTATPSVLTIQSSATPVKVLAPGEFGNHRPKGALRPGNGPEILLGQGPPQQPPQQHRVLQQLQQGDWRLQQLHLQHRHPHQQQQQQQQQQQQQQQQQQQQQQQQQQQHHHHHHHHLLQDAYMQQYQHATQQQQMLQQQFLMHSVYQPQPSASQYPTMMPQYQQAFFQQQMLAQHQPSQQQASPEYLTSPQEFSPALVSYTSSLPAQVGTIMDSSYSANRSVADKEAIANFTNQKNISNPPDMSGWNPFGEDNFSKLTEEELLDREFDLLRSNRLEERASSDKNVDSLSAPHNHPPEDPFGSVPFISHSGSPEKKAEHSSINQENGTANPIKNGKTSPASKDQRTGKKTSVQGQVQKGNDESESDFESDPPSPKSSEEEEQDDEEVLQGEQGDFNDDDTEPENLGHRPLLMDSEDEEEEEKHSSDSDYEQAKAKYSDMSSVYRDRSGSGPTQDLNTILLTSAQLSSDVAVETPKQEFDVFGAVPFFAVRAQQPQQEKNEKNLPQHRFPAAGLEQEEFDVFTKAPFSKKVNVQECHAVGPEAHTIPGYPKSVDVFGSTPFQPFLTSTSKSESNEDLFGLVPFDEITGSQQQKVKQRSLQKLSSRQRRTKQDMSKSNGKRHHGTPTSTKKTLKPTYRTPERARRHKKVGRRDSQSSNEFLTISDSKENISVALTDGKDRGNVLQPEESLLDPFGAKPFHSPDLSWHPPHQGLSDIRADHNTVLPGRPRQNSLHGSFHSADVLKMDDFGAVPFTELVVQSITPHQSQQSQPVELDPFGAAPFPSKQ

RIPK2 = target: T14, RIPK2 (Homo sapiens, UniProt O43353)
T14 construct: DNA label (qPCR read-out); purchased DiscoveRx (KINOMEscan ScanMAX panel)

ADCK4 = target: T15, ADCK4 (Homo sapiens, UniProt Q96D53)
T15 construct: purchased DiscoveRx (KINOMEscan scanMAX panel, service)
T15 sequence (Q96D53 whole entry): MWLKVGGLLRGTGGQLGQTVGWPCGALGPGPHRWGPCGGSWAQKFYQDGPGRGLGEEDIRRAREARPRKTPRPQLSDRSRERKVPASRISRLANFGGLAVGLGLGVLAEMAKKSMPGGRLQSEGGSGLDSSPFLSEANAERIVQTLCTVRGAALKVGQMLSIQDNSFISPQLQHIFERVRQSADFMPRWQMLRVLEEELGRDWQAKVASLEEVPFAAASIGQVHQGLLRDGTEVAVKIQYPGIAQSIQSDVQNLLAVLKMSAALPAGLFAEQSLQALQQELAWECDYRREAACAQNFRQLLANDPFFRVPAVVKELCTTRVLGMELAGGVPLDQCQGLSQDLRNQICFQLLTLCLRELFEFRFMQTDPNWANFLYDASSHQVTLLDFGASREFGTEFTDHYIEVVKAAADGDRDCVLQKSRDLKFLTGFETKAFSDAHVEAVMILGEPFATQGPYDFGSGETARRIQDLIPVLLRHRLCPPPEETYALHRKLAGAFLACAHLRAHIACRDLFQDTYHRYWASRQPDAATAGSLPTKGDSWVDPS

MAP4K3 = MAP4K3 (Homo sapiens, UniProt Q8IVH8)
CDK2 = target: T16, CDK2 (Homo sapiens, UniProt P24941)
T16 construct: purchased DiscoverX (KINOMEscan service)

CAMK2D = target: T17, CAMK2D (Homo sapiens, UniProt Q13557)
T17 construct: DNA label (qPCR read-out); purchased KINOMEscan (ScanMAX panel service)

CSF1R-autoinhibited = target: T18, CSF1R-autoinhibited (Homo sapiens, UniProt P07333)
T18 construct: DNA label (for qPCR read-out); purchased DiscoveRx (KINOMEscan scanMAX service)

CAMKK1 = target: T19, CAMKK1 (Homo sapiens, UniProt Q8N5S9)
T19 construct: DNA label (qPCR read-out); purchased KINOMEscan (ScanMAX panel service)

PIK3CA(H1047L) = target: T20, PIK3CA(H1047L) (Homo sapiens, UniProt P42336, H1047L)
T20 construct: DNA label; purchased DiscoveRx (KINOMEscan scanMAX panel)

MAP4K5 = MAP4K5 (Homo sapiens, UniProt Q9Y4K4)
PAK3 = target: T21, PAK3 (Homo sapiens, UniProt O75914)
T21 construct: purchased DiscoverX (KINOMEscan service)
T21 sequence (O75914 whole entry): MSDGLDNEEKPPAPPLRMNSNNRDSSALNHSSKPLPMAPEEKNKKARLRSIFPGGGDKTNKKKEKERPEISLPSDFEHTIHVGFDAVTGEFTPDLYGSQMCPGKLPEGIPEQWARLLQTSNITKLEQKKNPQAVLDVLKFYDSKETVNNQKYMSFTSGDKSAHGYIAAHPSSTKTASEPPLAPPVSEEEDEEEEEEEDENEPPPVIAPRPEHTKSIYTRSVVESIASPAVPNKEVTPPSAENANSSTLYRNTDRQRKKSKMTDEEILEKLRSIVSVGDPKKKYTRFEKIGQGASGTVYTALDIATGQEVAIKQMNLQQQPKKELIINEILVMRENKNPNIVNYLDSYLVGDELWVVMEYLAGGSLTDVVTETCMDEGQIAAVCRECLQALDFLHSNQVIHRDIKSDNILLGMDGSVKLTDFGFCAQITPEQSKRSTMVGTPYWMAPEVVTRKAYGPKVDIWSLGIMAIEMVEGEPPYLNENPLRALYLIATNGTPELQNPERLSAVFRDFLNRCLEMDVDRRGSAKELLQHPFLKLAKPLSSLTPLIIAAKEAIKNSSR

AURKB = target: T22, AURKB (Homo sapiens, UniProt Q96GD4)
T22 construct: DNA label (qPCR read-out); purchased KINOMEscan scanMAX panel (DiscoveRx)

DDR2 = target: T23, DDR2 (Homo sapiens, UniProt Q16832)
T23 construct: DNA label (qPCR read-out); purchased KINOMEscan (DiscoveRx) panel

BRSK1 = target: T24, BRSK1 (Homo sapiens, UniProt Q8TDC3)
T24 construct: DNA label (for qPCR read-out); purchased KINOMEscan scanMAX panel (DiscoveRx)
T24 sequence (Q8TDC3 whole entry): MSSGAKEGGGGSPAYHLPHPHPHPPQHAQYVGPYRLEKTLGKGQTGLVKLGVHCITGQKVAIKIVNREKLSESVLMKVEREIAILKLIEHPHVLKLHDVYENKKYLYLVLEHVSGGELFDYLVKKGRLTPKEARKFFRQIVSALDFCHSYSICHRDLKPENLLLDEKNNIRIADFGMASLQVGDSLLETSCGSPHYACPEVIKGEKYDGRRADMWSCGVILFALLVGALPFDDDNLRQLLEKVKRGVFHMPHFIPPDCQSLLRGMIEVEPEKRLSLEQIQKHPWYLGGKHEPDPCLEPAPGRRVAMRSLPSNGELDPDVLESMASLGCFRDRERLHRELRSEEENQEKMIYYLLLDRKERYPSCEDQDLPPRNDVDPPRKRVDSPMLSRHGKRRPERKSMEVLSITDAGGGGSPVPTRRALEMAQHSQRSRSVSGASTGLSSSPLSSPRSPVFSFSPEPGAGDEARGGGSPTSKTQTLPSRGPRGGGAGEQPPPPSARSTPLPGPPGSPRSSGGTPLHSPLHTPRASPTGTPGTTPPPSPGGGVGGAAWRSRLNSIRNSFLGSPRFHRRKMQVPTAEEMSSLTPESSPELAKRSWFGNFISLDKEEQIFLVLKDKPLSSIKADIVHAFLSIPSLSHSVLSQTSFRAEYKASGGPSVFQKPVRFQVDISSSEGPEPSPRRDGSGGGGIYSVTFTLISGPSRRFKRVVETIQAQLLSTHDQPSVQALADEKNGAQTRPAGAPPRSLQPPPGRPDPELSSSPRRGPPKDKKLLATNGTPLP

PIK3CG = target: T25, PIK3CG (Homo sapiens, UniProt P48736)
T25 construct: DNA label; purchased DiscoveRx (KINOMEscan scanMAX panel)

MKNK2 = target: T26, MKNK2 (Homo sapiens, UniProt Q9HBH9)
T26 construct: DNA label (qPCR read-out); purchased KINOMEscan scanMAX panel (DiscoveRx)

ULK3 = target: T27, ULK3 (Homo sapiens, UniProt Q6PHR2)
T27 construct: DNA label (for qPCR read-out); purchased DiscoveRx (KINOMEscan scanMAX panel)

[1] = target: T28, TYK2(JH2domain-pseudokinase) (Homo sapiens, UniProt P29597)
T28 construct: JH2domain; DNA label (for qPCR read-out); purchased DiscoveRx (KINOMEscan scanMAX panel)
T28 sequence (P29597 589-875 limits assumed): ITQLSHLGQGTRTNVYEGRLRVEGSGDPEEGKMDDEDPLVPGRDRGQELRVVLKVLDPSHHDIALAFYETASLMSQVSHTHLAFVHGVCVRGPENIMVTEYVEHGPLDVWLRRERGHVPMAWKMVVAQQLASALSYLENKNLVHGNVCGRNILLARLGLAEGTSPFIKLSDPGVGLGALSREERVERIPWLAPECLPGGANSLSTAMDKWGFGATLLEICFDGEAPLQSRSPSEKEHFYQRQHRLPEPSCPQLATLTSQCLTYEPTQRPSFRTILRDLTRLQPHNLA

PRKD1 = target: T29, PRKD1 (Homo sapiens, UniProt Q15139)
T29 construct: purchased DiscoveRx (KINOMEscan scanMAX panel)

KIT(D816V) = target: T30, KIT(D816V) (Homo sapiens, UniProt P10721, D816V)
T30 construct: DNA label (for qPCR read-out); purchased DiscoveRx (KINOMEscan scanMAX panel)

PIM2 = target: T31, PIM2 (Homo sapiens, UniProt Q9P1W9)
T31 construct: DNA label (qPCR read-out); purchased KINOMEscan (DiscoveRx) panel
T31 sequence (Q9P1W9 whole entry): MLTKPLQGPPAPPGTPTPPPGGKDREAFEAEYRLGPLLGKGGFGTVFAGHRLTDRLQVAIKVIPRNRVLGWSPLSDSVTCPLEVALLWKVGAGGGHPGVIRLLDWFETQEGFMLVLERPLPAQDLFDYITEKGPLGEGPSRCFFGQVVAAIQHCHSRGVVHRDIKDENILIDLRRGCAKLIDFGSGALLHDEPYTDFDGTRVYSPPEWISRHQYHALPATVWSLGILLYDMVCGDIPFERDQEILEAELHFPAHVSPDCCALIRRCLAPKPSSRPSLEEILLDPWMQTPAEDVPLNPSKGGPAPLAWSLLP

PKN2 = target: T32, PKN2 (Homo sapiens, UniProt Q16513)
T32 construct: DNA label (qPCR read-out); purchased KINOMEscan (DiscoveRx) panel

ERK1 = target: T33, ERK1 (Homo sapiens, UniProt P27361)
T33 construct: DNA label (qPCR read-out); purchased DiscoveRx (KINOMEscan ScanMAX panel)

Row | SMILES | % Ctrl (PKN1) [% Ctrl] | % Ctrl (PFTAIRE2) [% Ctrl] | % Ctrl (ROCK2) [% Ctrl] | % Ctrl (ERK4) [% Ctrl] | % Ctrl (PIP5K2B) [% Ctrl] | % Ctrl (p38-gamma) [% Ctrl] | % Ctrl (SGK) [% Ctrl] | % Ctrl (ASK1) [% Ctrl] | % Ctrl (MAP4K4) [% Ctrl] | % Ctrl (KIT(V559D, V654A)) [% Ctrl] | % Ctrl (NEK10) [% Ctrl] | % Ctrl (AKT3) [% Ctrl] | % Ctrl (CSNK1D) [% Ctrl] | % Ctrl (BIKE) [% Ctrl] | % Ctrl (RIPK2) [% Ctrl] | % Ctrl (ADCK4) [% Ctrl] | % Ctrl (MAP4K3) [% Ctrl] | % Ctrl (CDK2) [% Ctrl] | % Ctrl (CAMK2D) [% Ctrl] | % Ctrl (CSF1R-autoinhibited) [% Ctrl] | also measured
1 | CN(C)C(=O)c1ccc(N2CCCN(c3ccnc4sc(C(N)=O)c(N)c34)CC2)cc1 [15u, 3-amino-4-(4-(4-(dimethylcarbamoyl)phenyl)-1,4-diazepan-1-yl)thieno[2,3-b]pyridine-2-carboxamide] | 96 | 100 | 100 | 72 | 92 | 98 | 86 | 100 | 100 | 100 | 93 | 97 | 20 | 100 | 100 | 95 | 91 | 100 | 99 | 88 | % Ctrl (CAMKK1): 96 % Ctrl; % Ctrl (PIK3CA(H1047L)): 94 % Ctrl; % Ctrl (MAP4K5): 100 % Ctrl; % Ctrl (PAK3): 80 % Ctrl; % Ctrl (AURKB): 91 % Ctrl; % Ctrl (DDR2): 80 % Ctrl; % Ctrl (BRSK1): 86 % Ctrl; % Ctrl (PIK3CG): 79 % Ctrl; % Ctrl (MKNK2): 83 % Ctrl; % Ctrl (ULK3): 96 % Ctrl; % Ctrl [1]: 73 % Ctrl; % Ctrl (PRKD1): 88 % Ctrl; % Ctrl (KIT(D816V)): 93 % Ctrl; % Ctrl (PIM2): 85 % Ctrl; % Ctrl (PKN2): 100 % Ctrl; % Ctrl (ERK1): 100 % Ctrl
2 | [2H]C([2H])([2H])N(C(=O)c1ccc(N2CCCN(c3ccnc4sc(C(N)=O)c(N)c34)CC2)cc1)C([2H])([2H])[2H] [15u_D6, 3-amino-4-(4-(4-(bis(methyl-d3)carbamoyl)phenyl)-1,4-diazepan-1-yl)thieno[2,3-b]pyridine-2-carboxamide] | 100 | 80 | 80 | 100 | 95 | 100 | 83 | 100 | 93 | 100 | 61 | 100 | 22 | 96 | 93 | 83 | 95 | 99 | 92 | 83 | % Ctrl (CAMKK1): 100 % Ctrl; % Ctrl (PIK3CA(H1047L)): 80 % Ctrl; % Ctrl (MAP4K5): 97 % Ctrl; % Ctrl (PAK3): 40 % Ctrl; % Ctrl (AURKB): 90 % Ctrl; % Ctrl (DDR2): 52 % Ctrl; % Ctrl (BRSK1): 97 % Ctrl; % Ctrl (PIK3CG): 76 % Ctrl; % Ctrl (MKNK2): 69 % Ctrl; % Ctrl (ULK3): 79 % Ctrl; % Ctrl [1]: 59 % Ctrl; % Ctrl (PRKD1): 92 % Ctrl; % Ctrl (KIT(D816V)): 79 % Ctrl; % Ctrl (PIM2): 89 % Ctrl; % Ctrl (PKN2): 100 % Ctrl; % Ctrl (ERK1): 97 % Ctrl
